In US20110184188A1, “Insecticidal Benzenedicarboxamide Derivative” (priority 2008, published 2011):
Where two headings read alike, the source gives them in different places.

Assay: logP(acid) by reverse phase (C18) chromatography at pH 2.3
Assay type: physicochemical
Details: pH 2.3
[1] = reverse phase (C18) chromatography
[2] = reverse phase (C18) chromatography column, reverse phase (C18) chromatography, pH2.3, 0.1% phosphoric acid / acetonitrile gradient 10-95%, read-out: logP (acid)

SMILES	logP (acid) [1]	other results
CSC[C@H](C)NC(=O)c1c(Br)cccc1C(=O)Nc1cnc(Cn2nc(C(F)(F)F)nc2C(F)(F)F)cc1C [14-271]	logP (acid) 3.37	
CSC[C@H](C)NC(=O)c1c(I)cccc1C(=O)Nc1cnc(Cn2nc(C(F)(F)F)nc2C(F)(F)F)cc1C [14-274]	logP (acid) 3.44	
CC(=O)CC(C)NC(=O)c1c(Cl)cccc1C(=O)Nc1ccc(Cn2nc(C(F)(F)C(F)(F)F)nc2C(F)(F)F)cc1C (centres unmarked) [14-295]	logP (acid) 3.56	
CC(=O)CC(C)NC(=O)c1c(Br)cccc1C(=O)Nc1ccc(Cn2nc(C(F)(F)C(F)(F)F)nc2C(F)(F)F)cc1C (centres unmarked) [14-296]	logP (acid) 3.46	
CC(=O)CC(C)NC(=O)c1c(I)cccc1C(=O)Nc1ccc(Cn2nc(C(F)(F)C(F)(F)F)nc2C(F)(F)F)cc1C (centres unmarked) [14-297]	logP (acid) 3.70	
CC(=O)OC[C@H](C)NC(=O)c1c(Cl)cccc1C(=O)Nc1ccc(Cn2nc(C(F)(F)F)nc2C(F)(F)F)cc1C [14-298]	logP (acid) 3.08	
CSC[C@H](C)NC(=O)c1c(Br)cncc1C(=O)Nc1ccc(Cn2nc(C(F)(F)C(F)(F)F)nc2C(F)(F)F)cc1C [14-300]	logP (acid) 3.84	
CSC[C@H](C)NC(=O)c1c(Br)cccc1C(=O)Nc1ccc(Cn2cnc(C(F)(F)C(F)F)n2)nc1C [14-302]	logP (acid) 2.48	
CSC[C@H](C)NC(=O)c1c(Cl)cccc1C(=O)Nc1ccc(Cn2nnc(-c3ccc(C(F)(F)F)cc3)n2)cc1C [14-305]	logP (acid) 4.08	
CSC[C@H](C)NC(=O)c1c(Cl)cccc1C(=O)Nc1ccc(Cn2nnc(C(F)(F)F)n2)nc1C [14-306]	logP (acid) 2.91	
CSC[C@H](C)NC(=O)c1c(Cl)cccc1C(=O)Nc1ccc(Cn2nnc(C(F)(F)C(F)(F)C(F)(F)F)n2)nc1C [14-307]	logP (acid) 3.71	
CSC[C@H](C)NC(=O)c1c(Cl)cccc1C(=O)Nc1ccc(Cn2cnc(C(F)(F)C(F)F)n2)nc1C [14-309]	logP (acid) 2.38	
CSC[C@H](C)NC(=O)c1c(Cl)cccc1C(=O)Nc1ccc(Cn2cnc(C(F)(F)C(F)(F)C(F)(F)F)n2)nc1C [14-310]	logP (acid) 3.16	
CSC[C@H](C)NC(=O)c1c(Cl)cccc1C(=O)Nc1ccc(Cn2nc(C(F)(F)C(F)F)nc2C(F)(F)F)nc1C [14-311]	logP (acid) 3.45	
Cc1nc(Cn2nc(C(F)(F)F)n(C)c2=O)ccc1NC(=O)c1cccc(Cl)c1C(=O)N[C@@H](C)C[S+](C)[O-] (some centres unmarked) [14-321]	logP (acid) 1.37	
Cc1nc(Cn2nc(C(F)(F)F)n(C)c2=O)ccc1NC(=O)c1cccc(Cl)c1C(=O)N[C@@H](C)CS(C)(=O)=O [14-322]	logP (acid) 1.60	
CSC[C@H](C)NC(=O)c1c(Cl)cccc1C(=O)Nc1ccc(Cn2nc(C(F)(F)F)n(C3CC3)c2=O)nc1C [14-323]	logP (acid) 2.57	
CSC[C@H](C)NC(=O)c1c(Cl)cccc1C(=O)Nc1ccc(Cn2nc(C(F)(F)C(F)(F)F)n(C(F)F)c2=O)cc1C [14-328]	logP (acid) 3.68	
Cc1cc(Cn2nc(C(F)(F)C(F)(F)F)n(C(F)F)c2=O)ccc1NC(=O)c1cccc(Cl)c1C(=O)N[C@@H](C)C[S+](C)[O-] (some centres unmarked) [14-329]	logP (acid) 2.5	
Cc1cc(Cn2nc(C(F)(F)C(F)(F)F)n(C(F)F)c2=O)ccc1NC(=O)c1cccc(Cl)c1C(=O)N[C@@H](C)CS(C)(=O)=O [14-330]	logP (acid) 2.85	

SMILES	logP (acid) [1]	other results
CSC[C@H](C)NC(=O)c1c(Br)cccc1C(=O)Nc1ccc(Cn2nc(C(F)(F)C(F)(F)F)n(C(F)F)c2=O)cc1C [14-331]	logP (acid) 3.75	
CSC[C@H](C)NC(=O)c1c(I)cccc1C(=O)Nc1ccc(Cn2nc(C(F)(F)C(F)(F)F)n(C(F)F)c2=O)cc1C [14-334]	logP (acid) 3.11	
Cc1cc(Cn2nnc(-c3ccc(C(F)(F)F)cc3)n2)ccc1NC(=O)c1cccc(Br)c1C(=O)N[C@@H](C)CS(C)(=O)=O [14-348]	logP (acid) 3.22	
Cc1cc(Cn2nnc(-c3ccc(C(F)(F)F)cc3)n2)ccc1NC(=O)c1cccc(Cl)c1C(=O)N[C@@H](C)CS(C)(=O)=O [14-349]	logP (acid) 3.23	
CSC[C@H](C)NC(=O)c1c(Cl)cccc1C(=O)Nc1ccc(Cn2nc(C(F)(F)F)nc2NC(=O)C(F)(F)F)cc1C [14-353]	logP (acid) 3.11	
Cc1cc(Cn2nc(C(F)(F)C(F)(F)F)nc2C(F)(F)F)ccc1NC(=O)c1cccc(Cl)c1C(=O)NC(C)CC1(C)OCCCO1 (centres unmarked) [14-357]	logP (acid) 3.79	
Cc1cc(Cn2nc(C(F)(F)C(F)(F)F)nc2C(F)(F)F)ccc1NC(=O)c1cccc(I)c1C(=O)NC(C)CC1(C)OCCCO1 (centres unmarked) [14-358]	logP (acid) 3.95	
Cc1cc(Cn2nc(C(F)(F)C(F)(F)F)nc2C(F)(F)F)ccc1NC(=O)c1cccc(Br)c1C(=O)NC(C)CC1(C)OCCCO1 (centres unmarked) [14-359]	logP (acid) 4.06	
Cc1cc(Cn2nc(C(F)(F)C(F)(F)F)nc2C(F)(F)F)ccc1NC(=O)c1cccc(Cl)c1C(=O)NC(C)CC1(C)OCCO1 (centres unmarked) [14-360]	logP (acid) 3.86	
Cc1cc(Cn2nc(C(F)(F)C(F)(F)F)nc2C(F)(F)F)ccc1NC(=O)c1cccc(I)c1C(=O)NC(C)CC1(C)OCCO1 (centres unmarked) [14-361]	logP (acid) 3.95	
Cc1cc(Cn2nc(C(F)(F)C(F)(F)F)nc2C(F)(F)F)ccc1NC(=O)c1cccc(Br)c1C(=O)NC(C)CC1(C)OCCO1 (centres unmarked) [14-362]	logP (acid) 3.92	
CO/N=C(\C)CC(C)NC(=O)c1c(Br)cccc1C(=O)Nc1ccc(Cn2nc(C(F)(F)C(F)(F)F)nc2C(F)(F)F)cc1C (centres unmarked) [14-363]	logP (acid) 4.03	
CSC[C@H](C)NC(=O)c1c(C(=O)Nc2ccc(Cn3nc(C(F)(F)F)nc3C(F)(F)F)nc2C)cccc1S(C)(=O)=O [14-364]	logP (acid) 2.98	
CSC[C@H](C)NC(=O)c1c(C(=O)Nc2ccc(Cn3nc(C(F)(F)F)nc3C(F)(F)F)nc2C)cccc1S(=O)(=O)N(C)C [14-365]	logP (acid) 3.30	
Cc1nc(Cn2nc(C(F)(F)F)nc2C(F)(F)F)ccc1NC(=O)c1cccc(S(C)(=O)=O)c1C(=O)N[C@@H](C)C[S+](C)[O-] (some centres unmarked) [14-366]	logP (acid) 2.07	
Cc1nc(Cn2nc(C(F)(F)F)nc2C(F)(F)F)ccc1NC(=O)c1cccc(S(=O)(=O)N(C)C)c1C(=O)N[C@@H](C)C[S+](C)[O-] (some centres unmarked) [14-367]	logP (acid) 2.25	
Cc1nc(Cn2nc(C(F)(F)F)nc2C(F)(F)F)ccc1NC(=O)c1cccc(S(C)(=O)=O)c1C(=O)N[C@@H](C)CS(C)(=O)=O [14-368]	logP (acid) 2.43	
Cc1nc(Cn2nc(C(F)(F)F)nc2C(F)(F)F)ccc1NC(=O)c1cccc(S(=O)(=O)N(C)C)c1C(=O)N[C@@H](C)CS(C)(=O)=O [14-369]	logP (acid) 2.72	
CSC[C@H](C)NC(=O)c1c(C(=O)Nc2ccc(Cn3nc(C(F)(F)C(F)(F)F)nc3C(F)(F)F)cc2C)cccc1S(=O)(=O)N(C)C [14-384]	logP (acid) 3.88	
CSC[C@H](C)NC(=O)c1c(SC)cccc1C(=O)Nc1ccc(Cn2nc(C(F)(F)C(F)(F)F)nc2C(F)(F)C(F)(F)F)nc1C [14-387]	logP (acid) 4.33	

SMILES	logP (acid) [1]	other results
CSC[C@H](C)NC(=O)c1c(SC)cccc1C(=O)Nc1ccc(Cn2nc(C(F)(F)C(F)(F)F)n(C(F)F)c2=O)cc1C [14-389]	logP (acid) 3.53	
CSC[C@H](C)NC(=O)c1c(C(=O)Nc2ccc(Cn3nc(C(F)(F)C(F)(F)F)nc3C(F)(F)F)nc2C)cccc1S(C)(=O)=O [14-393]	logP (acid) 3.34	
Cc1nc(Cn2nc(C(F)(F)C(F)(F)F)nc2C(F)(F)F)ccc1NC(=O)c1cccc(S(C)(=O)=O)c1C(=O)N[C@@H](C)C[S+](C)[O-] (some centres unmarked) [14-394]	logP (acid) 2.39	
Cc1cc(Cn2nc(C(F)(F)C(F)(F)F)nc2C(F)(F)F)ccc1NC(=O)c1cccc(S(=O)(=O)N(C)C)c1C(=O)N[C@@H](C)CS(C)(=O)=O [14-395]	logP (acid) 3.13	
Cc1nc(Cn2nc(C(F)(F)C(F)(F)F)nc2C(F)(F)F)ccc1NC(=O)c1cccc(S(C)(=O)=O)c1C(=O)N[C@@H](C)CS(C)(=O)=O [14-396]	logP (acid) 2.76	
CSC[C@H](C)NC(=O)c1c(SC)cccc1C(=O)Nc1ccc(Cn2nc(C(F)(F)C(F)F)nc2C(F)(F)F)nc1C [14-397]	logP (acid) 3.49	
CSC[C@H](C)NC(=O)c1c(C(=O)Nc2ccc(Cn3nc(C(F)(F)F)nc3C(F)(F)F)cc2C)cccc1S(=O)(=O)N(C)C [14-414]	logP (acid) 3.54	
CSC[C@H](C)NC(=O)c1c(SC)cccc1C(=O)Nc1cnc(Cn2nc(C(F)(F)F)nc2C(F)(F)F)cc1C [14-415]	logP (acid) 3.3	
CSC[C@H](C)NC(=O)c1c(Cl)cccc1C(=O)Nc1ccc(Cn2nc(C(F)(F)C(F)(F)F)n(N)c2=O)cc1C [14-421]	logP (acid) 2.79	
Cc1cc(Cn2nc(C(F)(F)C(F)(F)F)n(N)c2=O)ccc1NC(=O)c1cccc(Cl)c1C(=O)N[C@@H](C)C[S+](C)[O-] (some centres unmarked) [14-422]	logP (acid) 1.82	
Cc1cc(Cn2nc(C(F)(F)C(F)(F)F)n(N)c2=O)ccc1NC(=O)c1cccc(Cl)c1C(=O)N[C@@H](C)CS(C)(=O)=O [14-423]	logP (acid) 2.13	
Cc1cc(COS(C)(=O)=O)ncc1[N+](=O)[O-] [SYNTHESIS EXAMPLE 68-1]		chromatographic logP [2]: 1.49
Cc1cc(Cn2nc(C(F)(F)F)cc2C(F)(F)F)ncc1[N+](=O)[O-] [SYNTHESIS EXAMPLE 68-2]		chromatographic logP [2]: 3.64
Cc1cc(Cn2nc(C(F)(F)F)nc2C(F)(F)F)ncc1[N+](=O)[O-] [SYNTHESIS EXAMPLE 69-1]		chromatographic logP: 3.38
Cc1nc(Cn2nc(C(F)(F)C(F)(F)F)cc2C(F)(F)C(F)(F)F)ccc1[N+](=O)[O-] [SYNTHESIS EXAMPLE 81-1]		chromatographic logP [2]: 4.68
Cc1nc(Cn2nc(C(F)(F)C(F)(F)F)cc2C(F)(F)C(F)(F)F)ccc1N [SYNTHESIS EXAMPLE 81-2]		chromatographic logP: 2.83
Cc1nc(Cn2cc(C(F)(F)C(F)(F)F)c(C(F)(F)C(F)(F)F)n2)ccc1[N+](=O)[O-] [SYNTHESIS EXAMPLE 82-1]		chromatographic logP [2]: 4.5
Cc1nc(Cn2cc(C(F)(F)C(F)(F)F)c(C(F)(F)C(F)(F)F)n2)ccc1N [SYNTHESIS EXAMPLE 82-2]		chromatographic logP: 2.64
Cc1nc(Cn2cnc(C(F)(F)C(F)F)n2)ccc1N [SYNTHESIS EXAMPLE 83-2]		chromatographic logP [2]: 0.55
